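Assay format: 96-well plates, 48-hour exposure. At the GI50, growth is halved. TGI denotes the concentration required for complete inhibition of growth.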
Tests used:
Assay in all cases: DTP human tumour cell line panel, 48 h
[1] = system: OVCAR-8 ovarian
[2] = system: NCI-H226 lung
[3] = system: NCI-H23 lung
[4] = system: MOLT-4 leukemia
[5] = system: TK-10 renal
[6] = system: HCT-15 colon
[7] = system: LOX IMVI melanoma
[8] = system: HCC-2998 colon
[9] = system: 786-0 renal
[10] = system: MDA-MB-231 breast
[11] = system: CCRF-CEM leukemia
[12] = system: RXF 393 renal
[13] = system: SK-OV-3 ovarian
[14] = system: OVCAR-5 ovarian
[15] = system: COLO 205 colon
[16] = system: SNB-75 CNS
[17] = system: DU-145 prostate
[18] = system: UACC-62 melanoma
[19] = system: HL-60(TB) leukemia
[20] = system: CAKI-1 renal
[21] = system: MDA-MB-435
[22] = system: SK-MEL-2 melanoma
[23] = system: NCI-H522 lung
[24] = system: HOP-92 NSCLC
[25] = system: HS 578T breast
[26] = system: SN12C renal
[27] = system: SF-268 CNS
[28] = system: SK-MEL-28 melanoma
[29] = system: A549 NSCLC
[30] = system: KM12 colon
[31] = system: M14 melanoma
[32] = system: SW-620 colon
[33] = system: SR leukemia
[34] = system: UO-31 renal
[35] = system: MALME-3M melanoma
[36] = system: ACHN renal
[37] = system: UACC-257 melanoma
[38] = system: IGROV1 ovarian
[39] = system: RPMI-8226 leukemia
[40] = system: OVCAR-4 ovarian
[41] = system: BT-549 breast
[42] = system: MCF7 breast
[43] = system: SF-539 CNS
[44] = system: NCI/ADR-RES ovarian
[45] = system: OVCAR-3 ovarian
[46] = system: HOP-62 NSCLC
[47] = system: HCT-116 colon
[48] = system: K-562 leukemia
[49] = system: U251 CNS
[50] = system: PC-3 prostate
[51] = system: NCI-H460 lung
[52] = system: T-47D breast
[53] = system: SK-MEL-5 melanoma
[54] = system: SF-295 CNS
[55] = system: A498 renal
[56] = system: HT29 colon
[57] = system: SNB-19 CNS

For `Nc1c(C(=O)c2cccc(OC[C@@H](O)CO)c2)cnn1-c1ccc(F)cc1`, the GI50 [1] was over 25 µM, the TGI [1] was over 25 µM and the GI50 [2] was over 25 µM. It also gave a TGI [2] of over 25 µM, a GI50 [3] of over 25 µM and a TGI [3] of over 25 µM. For the same compound, the GI50 [4] was over 25 µM, the TGI [4] was over 25 µM and the GI50 [5] was over 25 µM. The TGI [5] was over 25 µM, the GI50 [6] was over 25 µM and the TGI [6] was over 25 µM. The GI50 [7] was over 25 µM, the TGI [7] was over 25 µM and the GI50 [8] was over 25 µM. The TGI [8] was over 25 µM, the GI50 [9] was over 25 µM and the TGI [9] was over 25 µM. For the same compound, the GI50 [10] was over 25 µM, the TGI [10] was over 25 µM and the GI50 [11] was over 25 µM. For the same compound, the TGI [11] was over 25 µM, the GI50 [12] was over 25 µM and the TGI [12] was over 25 µM. It also gave a GI50 [13] of over 25 µM, a TGI [13] of over 25 µM and a GI50 [14] of over 25 µM. It also gave a TGI [14] of over 25 µM, a GI50 [15] of over 25 µM and a TGI [15] of over 25 µM. For the same compound, the GI50 [16] was over 25 µM, the TGI [16] was over 25 µM and the GI50 [17] was over 25 µM. It also gave a TGI [17] of over 25 µM, a GI50 [18] of over 25 µM and a TGI [18] of over 25 µM. It also gave a GI50 [19] of over 25 µM, a TGI [19] of over 25 µM and a GI50 [20] of over 25 µM. It also gave a TGI [20] of over 25 µM, a GI50 [21] of over 25 µM and a TGI [21] of over 25 µM. It also gave a GI50 [22] of over 25 µM, a TGI [22] of over 25 µM and a GI50 [23] of over 25 µM. The TGI [23] was over 25 µM, the GI50 [24] was over 25 µM and the TGI [24] was over 25 µM. The GI50 [25] was over 25 µM, the TGI [25] was over 25 µM and the GI50 [26] was over 25 µM. For the same compound, the TGI [26] was over 25 µM, the GI50 [27] was over 25 µM and the TGI [27] was over 25 µM. It also gave a GI50 [28] of over 25 µM, a TGI [28] of over 25 µM and a GI50 [29] of over 25 µM. For the same compound, the TGI [29] was over 25 µM, the GI50 [30] was over 25 µM and the TGI [30] was over 25 µM. It also gave a GI50 [31] of over 25 µM, a TGI [31] of over 25 µM and a GI50 [32] of over 25 µM. It also gave a TGI [32] of over 25 µM, a GI50 [33] of over 25 µM and a TGI [33] of over 25 µM. For the same compound, the GI50 [34] was over 25 µM, the TGI [34] was over 25 µM and the GI50 [35] was over 25 µM. For the same compound, the TGI [35] was over 25 µM, the GI50 [36] was over 25 µM and the TGI [36] was over 25 µM. It also gave a GI50 [37] of over 25 µM, a TGI [37] of over 25 µM and a GI50 [38] of over 25 µM. For the same compound, the TGI [38] was over 25 µM, the GI50 [39] was over 25 µM and the TGI [39] was over 25 µM. The GI50 [40] was over 20.9 µM, the TGI [40] was over 25 µM and the GI50 [41] was over 25 µM. For the same compound, the TGI [41] was over 25 µM, the GI50 [42] was over 25 µM and the TGI [42] was over 25 µM. For the same compound, the GI50 [43] was over 25 µM, the TGI [43] was over 25 µM and the GI50 [44] was over 25 µM. The TGI [44] was over 25 µM, the GI50 [45] was over 25 µM and the TGI [45] was over 25 µM. It also gave a GI50 [46] of over 25 µM, a TGI [46] of over 25 µM and a GI50 [47] of over 25 µM. The TGI [47] was over 25 µM, the GI50 [48] was over 25 µM and the TGI [48] was over 25 µM. The GI50 [49] was over 25 µM, the TGI [49] was over 25 µM and the GI50 [50] was over 25 µM. It also gave a TGI [50] of over 25 µM, a GI50 [51] of over 25 µM and a TGI [51] of over 25 µM. For the same compound, the GI50 [52] was over 25 µM, the TGI [52] was over 25 µM and the GI50 [53] was over 25 µM. For the same compound, the TGI [53] was over 25 µM, the GI50 [54] was over 25 µM and the TGI [54] was over 25 µM. It also gave a GI50 [55] of over 25 µM, a TGI [55] of over 25 µM and a GI50 [56] of over 25 µM. The TGI [56] was over 25 µM, the GI50 [57] was over 25 µM and the TGI [57] was over 25 µM.

`C[CH2][Pb]([CH2]C)([CH2]C)[O]C(=O)COC` gave a GI50 [1] of 1.91 µM, a TGI [1] of 9.03 µM and a GI50 [2] of 1.62 µM. It also gave a TGI [2] of 6.17 µM, a GI50 [3] of 1.01 µM and a TGI [3] of 5.07 µM. It also gave a GI50 [4] of 1.75 µM, a TGI [4] of 5.97 µM and a GI50 [5] of 0.832 µM. It also gave a TGI [5] of 3.77 µM, a GI50 [6] of 0.737 µM and a TGI [6] of 4.33 µM. It also gave a GI50 [7] of 0.815 µM, a TGI [7] of 2.28 µM and a GI50 [8] of 0.907 µM. For the same compound, the TGI [8] was 2.39 µM, the GI50 [9] was 1.22 µM and the TGI [9] was 3.11 µM. For the same compound, the GI50 [10] was 1.13 µM, the TGI [10] was 3.37 µM and the GI50 [11] was 0.534 µM. For the same compound, the TGI [11] was 6.84 µM, the GI50 [12] was 0.232 µM and the TGI [12] was 0.783 µM. It also gave a GI50 [13] of 1.55 µM, a TGI [13] of 4.93 µM and a GI50 [14] of 1.46 µM. It also gave a TGI [14] of 3.77 µM, a GI50 [15] of 1.35 µM and a TGI [15] of 2.96 µM. It also gave a GI50 [16] of 0.304 µM, a TGI [16] of 2.85 µM and a GI50 [17] of 1.49 µM. It also gave a TGI [17] of 5.68 µM, a GI50 [18] of 0.407 µM and a TGI [18] of 3.47 µM. It also gave a GI50 [19] of 0.634 µM, a TGI [19] of 2.45 µM and a GI50 [20] of 1.06 µM. For the same compound, the TGI [20] was 8.04 µM, the GI50 [21] was 0.182 µM and the TGI [21] was 0.409 µM. The GI50 [22] was 0.332 µM, the TGI [22] was 0.879 µM and the GI50 [23] was 0.892 µM. The TGI [23] was 2.48 µM, the GI50 [24] was 0.292 µM and the TGI [24] was 3.28 µM. It also gave a GI50 [25] of 0.517 µM, a TGI [25] of 4.57 µM and a GI50 [26] of 2.05 µM. The TGI [26] was 9.19 µM, the GI50 [27] was 1.75 µM and the TGI [27] was 7.02 µM. For the same compound, the GI50 [28] was 0.552 µM, the TGI [28] was 2.9 µM and the GI50 [29] was 1.36 µM. For the same compound, the TGI [29] was 6.82 µM, the GI50 [30] was 0.817 µM and the TGI [30] was 6.1 µM. For the same compound, the GI50 [31] was 0.4 µM, the TGI [31] was 1.9 µM and the GI50 [32] was 0.333 µM. The TGI [32] was 1.33 µM, the GI50 [33] was 0.328 µM and the TGI [33] was 5.07 µM. For the same compound, the GI50 [34] was 0.567 µM, the TGI [34] was 2.95 µM and the GI50 [35] was 0.337 µM. It also gave a TGI [35] of 3.76 µM, a GI50 [36] of 0.836 µM and a TGI [36] of 10.2 µM. It also gave a GI50 [37] of 0.571 µM, a TGI [37] of 3.26 µM and a GI50 [38] of 1.15 µM. It also gave a TGI [38] of 6.33 µM, a GI50 [39] of 0.421 µM and a TGI [39] of 3 µM. The GI50 [40] was 0.541 µM, the TGI [40] was 2.91 µM and the GI50 [41] was 0.837 µM. The TGI [41] was 3.61 µM, the GI50 [42] was 0.469 µM and the TGI [42] was 7.53 µM. For the same compound, the GI50 [43] was 1.23 µM, the TGI [43] was 3.28 µM and the GI50 [44] was 0.785 µM. For the same compound, the TGI [44] was 12 µM, the GI50 [45] was 0.441 µM and the TGI [45] was 1.86 µM. The GI50 [46] was 1.67 µM, the TGI [46] was 4.06 µM and the GI50 [47] was 0.578 µM. It also gave a TGI [47] of 1.97 µM, a GI50 [48] of 0.499 µM and a TGI [48] of 5.77 µM. It also gave a GI50 [49] of 1.29 µM, a TGI [49] of 2.94 µM and a GI50 [50] of 0.795 µM. It also gave a TGI [50] of 2.51 µM, a GI50 [51] of 0.951 µM and a TGI [51] of 10.4 µM. The GI50 [52] was 0.317 µM, the TGI [52] was 2.53 µM and the GI50 [53] was 0.427 µM. For the same compound, the TGI [53] was 1.62 µM, the GI50 [54] was 1.33 µM and the TGI [54] was 3.06 µM. The GI50 [55] was 0.277 µM, the TGI [55] was 2.29 µM and the GI50 [56] was 1.43 µM. For the same compound, the TGI [56] was 3.38 µM, the GI50 [57] was 1.97 µM and the TGI [57] was 9.06 µM.

— PubChem BioAssay (NCI)
